This is an account of results in US11684581B2, “Drug and layered silicate composite with improved oral bioavailability, oral pharmacological composition containing the composite and method for producing the composite” (KOREA INSTITUTE OF GEOSCIENCE AND MINERAL RESOURCES, priority 2018, dated 2023).

In brackets after ≈: the same amount, converted by molar mass.

A short description of data set [1]: Drug release (eruption) experiment in eruption solution, HPLC. Type of data set: physicochemical. Particulars: 50 rpm. The method, then:
Drug release experiments were conducted to confirm the release of the drug from the bentonite based on the surrounding environment type. Specifically, the sorafenib 800 μg and the bentonite composite produced under the process condition of Present Example 7 containing 800 μg of sorafenib were dispersed in 40 ml of an eruption solution respectively to form two dispersions. The, each dispersion was shaken at 37° C. at 50 rpm to effect eruption.
The eruption solution used in this experiment was embodied as each of a solution of 0.1 N HCl in water at pH 1.2 and 50 mM phosphate buffer at pH 7.4. Further, 0.5% (v/v) Tween 80 (Polyoxyethyelene Sorbitan Monooleate) was added to the eruption solution to dissolve the sorafenib sufficiently.
Then, the eruption solution was collected based on a time schedule by 0.4 mL, filtered and analyzed by a high performance liquid chromatography.

Data set [2] is described as follows: Solubility of sorafenib in mixed solvent (acetonitrile / 1 N hydrochloric acid / dimethyl sulfoxide). The data set is classed as physicochemical. Particulars: aqueous with cosolvent or surfactant or cyclodextrin; 15% acetonitrile, 83% 1 N hydrochloric acid, 2% dimethyl sulfoxide; read-out: solubility of sorafenib (dissolved concentration). The method, then:
In one example, the solubility of sorafenib when the ratio between acetonitrile and 1 N hydrochloric acid was adjusted while the dimethyl sulfoxide ratio in the total mixed solvent was fixed at 2% was measured. As a result, we dissolved the sorafenib at a concentration of 0.5 mg/mL while at a concentration of 15% acetonitrile and 83% of 1 N hydrochloric acid.

The conditions of data set [3]: cited from earlier work.
Data set [4] is described as follows: In vivo pharmacokinetics analysis after oral administration. Particulars: rat, 10 mg/kg based on sorafenib. The method, then: In order to evaluate the absorption and disappearance rate of the drug during oral administration, a in vivo pharmacokinetics analysis was performed on rats. A femoral artery of the rat was cannulated with PESO tubes. Then, sorafenib suspension, and sorafenib and bentonite composite suspension as produced according to Present Example 7 were orally administered into the rat. Thereafter, the rat blood was collected through the PESO tube based on a time schedule and was centrifuged to obtain plasma. After the plasma samples were pretreated, the in-blood drug concentration was analyzed using a mass spectrometer. The dose was set to 10 mg/kg based on the amount of the sorafenib. The plasma was collected over 2 days.
FIG. 7 is a graph showing changes in concentration of a drug in a blood over time in oral administration of sorafenib suspension (●) and sorafenib and bentonite composite suspension (□).

Broadly, the AUC(0-inf) is the area under the concentration-time curve extrapolated to infinity. A word on the Cmax: it is the peak of the concentration-time curve. The MRT is the average time that molecules of a dose stay in the body. A word on the Tmax: it is the time at which the peak concentration occurs. As usually defined, the half-life is the time in which the quantity being followed falls by half. Low values mean fast loss, high ones slow loss. For orientation: AUC(0-t) means exposure summed from dosing to a finite time, without extrapolation to infinity. Turning to `CNC(=O)c1cc(Oc2ccc(NC(=O)Nc3ccc(Cl)c(C(F)(F)F)c3)cc2)ccn1` [Sorafenib, sorafenib], the “released amount of the sorafenib” value in data set [1] (50 mM phosphate buffer pH 7.4, 0.5% (v/v) Tween 80, 37° C., 8 hours) was “below 30%”. The “released amount of the sorafenib” value in data set [1] (0.1 N HCl pH 1.2, 0.5% (v/v) Tween 80, 37° C., 8 hours stated for sorafenib alone) is on record as “below 30%”. Further, the solubility in data set [2] amounted to 500 µg/mL (≈ 1080 µM). Also, the In vivo half-life in data set [3] (background statement) is 24 to 48 h. Moreover, the “amount of the drug taken excreted in feces” value in data set [3] (oral, during about a week until steady-state) is given as “More than 70%”. Besides, in data set [4] (plasma), the AUC(0-inf) was 4850 ng·h/mL, the Cmax worked out at 100 ± 20 ng/mL, the MRT was 20.5 h and the time of peak concentration (Tmax) was 6.67 h. In data set [4] (plasma), the half-life stood at 28.2 ± 6.15 h. The exposure AUC(0-t) in data set [4] (plasma collected over 2 days) was 3120 ng·h/mL.
